Laboratory results published in PMC11714206, “Massively Parallel Screening of Toll/Interleukin‐1 Receptor (TIR)‐Derived Peptides Reveals Multiple Toll‐Like Receptors (TLRs)‐Targeting Immunomodulatory Peptides” (Advanced Science, 2024).
“And” between values parts separate entries of the source, which are not always exact repeats. Equal entries are not always repeated. Each block holds one sequence with its values, some of them ahead of it.

Biological target: T1, MyD88^TIR (Homo sapiens, UniProt Q99836)
T1 construct: MyD88 (residues 148–296); 6xHis; made in house; host or cells: E. coli BL21 (DE3)
Assay: T‐Surf phage library (P8 and P3) selection against MyD88^TIR, four rounds, NGS read counts
Format: binding
Details: for Population: 4th round of selection against MyD88 TIR, share of NGS reads; for P3_MyD88 Rank (after) / P3_MyD88 Rank (before): P3 library; for P8_MyD88 Rank (after) / P8_MyD88 Rank (before): P8 library
How it was run: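 Read counts come from NGS of phage pools after the fourth selection round, barcoded by 20-cycle PCR and filtered for quality ≥30. Each round: phage incubated 1 h at RT on immobilised TIR protein (5 µg mL^−1, BSA-blocked), washed, HCl-eluted and amplified in E. coli TG1.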

[1] = P3_MyD88 pool: P3 T-Surf phage library
[2] = P3_MyD88: rank by count after grouping
[3] = P3_MyD88: rank by count before grouping
[4] = selection against MyD88, rank after grouping
[5] = selection against MyD88, rank before grouping
[6] = selection against MyD88, rank by count after grouping
[7] = selection against MyD88, rank by count before grouping
[8] = 4R selection against MyD88, rank after grouping
[9] = 4R selection against MyD88, rank before grouping
[10] = selection against MyD88 TIR, rank by count after grouping
[11] = selection against MyD88 TIR, rank by count before grouping
[12] = P8_MyD88 pool: P8 T-Surf phage library
[13] = P8_MyD88: rank by count after grouping
[14] = P8_MyD88: rank by count before grouping

T1 sequence (Q99836 148-296): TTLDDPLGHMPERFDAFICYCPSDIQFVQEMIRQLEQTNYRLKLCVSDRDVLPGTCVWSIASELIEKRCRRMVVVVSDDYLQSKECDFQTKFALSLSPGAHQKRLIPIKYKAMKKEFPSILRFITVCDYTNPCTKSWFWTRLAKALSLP

Population [1]: 0.00466%
Sequence: LVAHEISKKMKIFETI

Rank (after) [2]: 413 | Rank (before) [3]: 2302
Sequence: LVAHEISKKMKIFRP

P3_MyD88 Rank (after) [4]: 511 | P3_MyD88 Rank (before) [5]: 2306
Sequence: LVAHEISKKRKIFATS

P3_MyD88 Rank (after) [6]: 694 | P3_MyD88 Rank (before) [7]: 2285
Sequence: LVAHEISKMMKVFATI

Rank (after) [2]: 143 | Rank (before) [3]: 2283
Sequence: LVAHEISNNMKIFATI

P3_MyD88 Rank (after) [10]: 232 | P3_MyD88 Rank (before) [11]: 2275
Sequence: LVAHELLKKMKIFATI

Rank (after) [2]: 386 | Rank (before) [3]: 2276
Sequence: LVAHELSNKMKSFATI

Rank (after) [2]: 389 | Rank (before) [3]: 2314
Sequence: LVAHQISKTIKIFATI

P3_MyD88 Rank (after) [8]: 621 | P3_MyD88 Rank (before) [9]: 2315
Sequence: LVAHRFSKKMKIFATM

P3_MyD88 Rank (after) [4]: 505 | P3_MyD88 Rank (before) [5]: 2318
Sequence: LVAMKLPRACLKRLK

P3_MyD88 Rank (after) [4]: 533 | P3_MyD88 Rank (before) [5]: 2319
Sequence: LVANEISKKIKIFAII

P3_MyD88 Rank (after) [4]: 561 | P3_MyD88 Rank (before) [5]: 2317
Sequence: LVAQEISKIKTMLATT

Population [1]: 0.00495% and 0.00466%
Sequence: LVAQEISKKMKIFATI

P3_MyD88 Rank (after) [8]: 638 | P3_MyD88 Rank (before) [9]: 2265
Sequence: LVSHEISKKVKIFATI

Population [12]: 0.0108%
Sequence: LVYHWIDWEYFVGIED

P8_MyD88 Rank (after) [8]: 659 | P8_MyD88 Rank (before) [9]: 3211
Sequence: LVYHWIDWVYFVGIED

Rank (after) [13]: 391 | Rank (before) [14]: 3656
Sequence: MFGGDSFHDFLELISM

P8_MyD88 Rank (after) [6]: 690 | P8_MyD88 Rank (before) [7]: 3664
Sequence: MFGGDTFHDFLDLLA

P3_MyD88 Rank (after) [4]: 527 | P3_MyD88 Rank (before) [5]: 3389
Sequence: NDLLHVWSSKANSLVG

Rank (after) [2]: 136 | Rank (before) [3]: 3388
Sequence: NDLVHGWSSKANSLVG

Population [1]: 0.00495%
Sequence: NDLVHVWSSKANSLVG

P3_MyD88 Rank (after) [6]: 743 | P3_MyD88 Rank (before) [7]: 3387
Sequence: NELIDVGHSYSMHRGG

P3_MyD88 Rank (after) [8]: 648 | P3_MyD88 Rank (before) [9]: 3394
Sequence: NELLHVWSSKANSLEG

Rank (after) [2]: 452 | Rank (before) [3]: 3442
Sequence: NELVHEWSSKANSVVG

P3_MyD88 Rank (after) [10]: 287 | P3_MyD88 Rank (before) [11]: 3397
Sequence: NELVHEWSSKLMSLGV

P3_MyD88 Rank (after) [10]: 275 | P3_MyD88 Rank (before) [11]: 3406
Sequence: NELVHVCFSNENSQVG

Rank (after) [2]: 420 | Rank (before) [3]: 3407
Sequence: NELVHVWCCKANSQAG

P3_MyD88 Rank (after) [6]: 718 | P3_MyD88 Rank (before) [7]: 3399
Sequence: NELVHVWSSKANIRVC

P3_MyD88 Rank (after) [10]: 262 | P3_MyD88 Rank (before) [11]: 3420
Sequence: NELVHVWSSKANSLW

Rank (after) [2]: 393 | Rank (before) [3]: 3447
Sequence: NELVKVWSSKANRLVG

More lines, now with the values behind:

Sequence: LVAHEISKKMKIFATF
Population [1]: 0.00291%

Sequence: LVAHEISKMLKIFETI
P3_MyD88 Rank (after) [6]: 681 | P3_MyD88 Rank (before) [7]: 2284

Sequence: LVAHEITKKLKSFATI
P3_MyD88 Rank (after) [8]: 641 | P3_MyD88 Rank (before) [9]: 2309

Sequence: LVAHEITPSLFKAIKE
Rank (after) [2]: 161 | Rank (before) [3]: 676

Sequence: LVAHRMSKKMKNVATI
P3_MyD88 Rank (after) [4]: 513 | P3_MyD88 Rank (before) [5]: 2316

Sequence: LVALEISKKMTIFATI
P3_MyD88 Rank (after) [10]: 228 | P3_MyD88 Rank (before) [11]: 2269

Sequence: MDYLLRILHSSNFTTF
Rank (after) [13]: 102 | Rank (before) [14]: 105 | Population [12]: 0.022%

Sequence: MEANSSRIWHRLLYSV
P8_MyD88 Rank (after) [6]: 769 | P8_MyD88 Rank (before) [7]: 3687

Sequence: MFGGATLHDVLELISM
P8_MyD88 Rank (after) [4]: 509 | P8_MyD88 Rank (before) [5]: 3654

Sequence: MFGGDPLHDFLDLISL
P8_MyD88 Rank (after) [8]: 592 | P8_MyD88 Rank (before) [9]: 3655

Sequence: MFGGDTFMIFWILLA
P8_MyD88 Rank (after) [8]: 593 | P8_MyD88 Rank (before) [9]: 3670

Sequence: MNWCMCGAAKRIAWW
Rank (after) [2]: 170 | Rank (before) [3]: 1156

Sequence: MVGGDTFHDFLDIISM
P8_MyD88 Rank (after) [8]: 655 | P8_MyD88 Rank (before) [9]: 3677

Sequence: NDSLFWDRLLYSLHVTE
Rank (after) [13]: 187 | Rank (before) [14]: 270

Sequence: NDSLFWDRLPYSLNVT
Rank (after) [13]: 468 | Rank (before) [14]: 3868

Sequence: NELCMCGAAKRIAWW
Rank (after) [2]: 175 | Rank (before) [3]: 1238

Sequence: NELVHEISKKMKIFATI
Rank (after) [2]: 398 | Rank (before) [3]: 3443

Sequence: NELVHVWRSKANRLVG
P3_MyD88 Rank (after) [8]: 646 | P3_MyD88 Rank (before) [9]: 3408

Sequence: NELVHVWSSKANSLVG
P8_MyD88 Rank (after) [6]: 696 | P8_MyD88 Rank (before) [7]: 3874

Sequence: NELVHVWSSKANSLVGQ
Rank (after) [2]: 186 | Rank (before) [3]: 1250

Sequence: NELVHVWSSKANTWW
P3_MyD88 Rank (after) [8]: 628 | P3_MyD88 Rank (before) [9]: 3431

Sequence: NELVNVWSSKANSQVG
P3_MyD88 Rank (after) [6]: 691 | P3_MyD88 Rank (before) [7]: 3451
